Data: ChEMBL document CHEMBL1938396, “Synthesis of new praziquantel analogues: potential candidates for the treatment of schistosomiasis” (2012)

Tested on: Schistosoma mansoni
Experiment: Antischistosomal activity against Schistosoma mansoni assessed as worm survival incubated for overnight followed by drug washout measured on day 7
Assay type: functional

Compound | LC90
O=C(CC1CCCCC1)N1CC2c3c(c4ccccc4n3Cc3ccccc3)CCN2C(=O)C1=O (stereo not given) | >100 µM
O=C(C1CCCC1)N1CC(=O)N2CCc3ccccc3C2C1 (stereo not given) | 10 µM
O=C1C(=O)N2CCc3c(n(Cc4ccccc4)c4ccccc34)C2CN1C(=O)C1CCCC1 (stereo not given) | >100 µM
O=C(c1ccc(C(F)(F)F)cc1)N1CC(=O)N2CCc3c(n(Cc4ccccc4)c4ccccc34)C2C1 (stereo not given) | >100 µM
O=C1C(=O)N2CCc3ccccc3C2CN1C(=O)C1CCCC1 (stereo not given) | >100 µM
O=C1C(=O)N2CCc3ccccc3C2CN1C(=O)C1CCCCC1 (stereo not given) | >100 µM
O=C(C1CCCCC1)N1CC(=O)N2CCc3c([nH]c4ccccc34)C2C1 (stereo not given) | 25 µM
O=C1C(=O)N2CCc3ccccc3C2CN1C(=O)c1ccc(C(F)(F)F)cc1 (stereo not given) | >100 µM
O=C(C1CCCCC1)N1CC(=O)N2CCc3ccccc3C2C1 (stereo not given) [PRAZIQUANTEL] | 3 µM
O=C(C1CCCCC1)N1CC(=O)N2CCc3c(n(Cc4ccccc4)c4ccccc34)C2C1 (stereo not given) | 25 µM
O=C1C(=O)N2CCc3c(n(Cc4ccccc4)c4ccccc34)C2CN1C(=O)C1CCCCC1 (stereo not given) | >100 µM
COc1cc2c(cc1OC)C1CN(C(=O)c3ccc(C(F)(F)F)cc3)CC(=O)N1CC2 (stereo not given) | >100 µM
O=C(c1ccc(C(F)(F)F)cc1)N1CC(=O)N2CCc3c([nH]c4ccccc34)C2C1 (stereo not given) | 50 µM
Cc1ccc(S(=O)(=O)N2CC(=O)N3CCc4ccccc4C3C2)cc1 (stereo not given) | >10 µM
COc1cc2c(cc1OC)C1CN(S(=O)(=O)c3ccc(C)cc3)CC(=O)N1CC2 (stereo not given) | >100 µM
COc1cc2c(cc1OC)C1CN(C(=O)C3CCCC3)CC(=O)N1CC2 (stereo not given) | 25 µM
O=C(CC1CCCCC1)N1CC2c3ccccc3CCN2C(=O)C1=O (stereo not given) | >100 µM
O=C1C(=O)N2CCc3c(n(Cc4ccccc4)c4ccccc34)C2CN1C(=O)c1ccc(C(F)(F)F)cc1 (stereo not given) | >100 µM
Cc1ccc(S(=O)(=O)N2CC3c4ccccc4CCN3C(=O)C2=O)cc1 (stereo not given) | >100 µM
COc1cc2c(cc1OC)C1CN(C(=O)C3CCCCC3)CC(=O)N1CC2 (stereo not given) | 50 µM
